# Source: paper PMC9851200, “Multiparameter phenotypic screening for endogenous TFEB and TFE3 translocation identifies novel chemical series modulating lysosome function” (Autophagy, 2022)
# Assays:
# Assay type in all cases: binding
# [1] = molecular target: T1, kinases (KINOMEscan panel) (Homo sapiens, UniProt O75747); settings: NEW KINOMEscan
# T1 sequence (O75747 1-1486): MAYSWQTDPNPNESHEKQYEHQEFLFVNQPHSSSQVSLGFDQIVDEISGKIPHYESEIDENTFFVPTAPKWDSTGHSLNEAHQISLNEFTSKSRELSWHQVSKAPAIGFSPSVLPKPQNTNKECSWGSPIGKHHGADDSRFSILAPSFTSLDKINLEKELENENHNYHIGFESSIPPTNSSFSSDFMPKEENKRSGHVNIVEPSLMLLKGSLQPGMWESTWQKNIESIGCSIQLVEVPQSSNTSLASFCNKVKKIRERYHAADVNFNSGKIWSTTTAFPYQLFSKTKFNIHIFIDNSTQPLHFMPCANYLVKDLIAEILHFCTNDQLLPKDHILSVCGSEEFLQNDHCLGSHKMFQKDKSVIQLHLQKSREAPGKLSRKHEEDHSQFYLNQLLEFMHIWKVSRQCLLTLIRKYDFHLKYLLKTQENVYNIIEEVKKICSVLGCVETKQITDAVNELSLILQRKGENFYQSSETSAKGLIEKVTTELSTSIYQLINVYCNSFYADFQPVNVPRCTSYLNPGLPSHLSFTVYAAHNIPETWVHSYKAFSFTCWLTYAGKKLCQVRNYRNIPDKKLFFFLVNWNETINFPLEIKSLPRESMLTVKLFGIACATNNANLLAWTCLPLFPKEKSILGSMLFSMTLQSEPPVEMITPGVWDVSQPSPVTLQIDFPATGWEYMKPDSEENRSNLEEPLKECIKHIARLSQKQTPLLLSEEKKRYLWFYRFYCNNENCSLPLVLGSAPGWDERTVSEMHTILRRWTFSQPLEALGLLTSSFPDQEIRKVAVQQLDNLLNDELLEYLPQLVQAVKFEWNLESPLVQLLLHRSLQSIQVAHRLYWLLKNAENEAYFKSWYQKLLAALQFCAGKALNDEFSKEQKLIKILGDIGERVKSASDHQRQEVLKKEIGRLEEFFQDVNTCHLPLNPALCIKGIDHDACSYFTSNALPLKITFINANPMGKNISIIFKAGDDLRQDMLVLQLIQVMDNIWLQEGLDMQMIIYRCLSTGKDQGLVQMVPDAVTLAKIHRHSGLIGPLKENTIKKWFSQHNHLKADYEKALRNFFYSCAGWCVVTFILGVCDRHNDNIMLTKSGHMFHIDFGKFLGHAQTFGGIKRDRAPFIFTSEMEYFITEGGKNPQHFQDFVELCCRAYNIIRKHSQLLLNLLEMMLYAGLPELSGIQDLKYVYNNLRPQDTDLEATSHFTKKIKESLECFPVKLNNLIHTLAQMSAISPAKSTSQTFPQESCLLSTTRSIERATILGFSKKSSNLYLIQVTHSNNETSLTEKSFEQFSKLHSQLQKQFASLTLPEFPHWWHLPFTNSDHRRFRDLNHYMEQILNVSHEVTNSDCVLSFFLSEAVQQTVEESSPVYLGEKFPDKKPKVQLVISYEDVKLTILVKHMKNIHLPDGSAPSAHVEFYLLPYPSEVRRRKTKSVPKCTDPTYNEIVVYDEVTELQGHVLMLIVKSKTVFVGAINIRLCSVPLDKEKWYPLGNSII
# [2] = molecular target: kinases (KINOMEscan panel) (Homo sapiens, UniProt Q16539)
# [3] = molecular target: kinases (KINOMEscan panel) (Homo sapiens, UniProt P10721, V559D); settings: kinase KIT(V559D); NEW KINOMEscan
# [4] = molecular target: kinases (KINOMEscan panel) (Homo sapiens, UniProt P42336, I800L); settings: kinase PIK3CA(I800L); NEW KINOMEscan
# [5] = molecular target: T2, kinases (KINOMEscan panel) (Homo sapiens, UniProt O15530); settings: NEW KINOMEscan
# T2 sequence (O15530 1-556): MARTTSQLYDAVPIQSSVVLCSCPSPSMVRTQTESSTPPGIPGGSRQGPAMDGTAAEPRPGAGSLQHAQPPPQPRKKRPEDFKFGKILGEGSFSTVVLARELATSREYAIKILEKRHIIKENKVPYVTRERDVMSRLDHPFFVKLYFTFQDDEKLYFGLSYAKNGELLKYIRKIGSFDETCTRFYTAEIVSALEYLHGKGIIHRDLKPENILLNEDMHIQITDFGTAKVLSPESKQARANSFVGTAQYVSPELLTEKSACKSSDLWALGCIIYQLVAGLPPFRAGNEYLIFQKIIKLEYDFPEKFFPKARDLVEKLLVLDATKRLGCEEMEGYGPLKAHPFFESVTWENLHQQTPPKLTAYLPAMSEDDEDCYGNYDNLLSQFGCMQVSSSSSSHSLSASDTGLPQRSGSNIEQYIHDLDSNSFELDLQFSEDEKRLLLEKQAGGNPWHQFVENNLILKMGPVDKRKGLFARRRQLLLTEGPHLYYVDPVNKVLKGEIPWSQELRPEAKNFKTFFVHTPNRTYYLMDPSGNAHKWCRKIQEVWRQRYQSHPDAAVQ
# [6] = molecular target: kinases (KINOMEscan panel) (Homo sapiens, UniProt P42336, Q546K); settings: kinase PIK3CA(Q546K); NEW KINOMEscan
# [7] = molecular target: kinases (KINOMEscan panel) (Homo sapiens, UniProt P36894); settings: kinase BMPR1A; NEW KINOMEscan
# [8] = molecular target: kinases (KINOMEscan panel) (Homo sapiens, UniProt P78368); settings: kinase CSNK1G2; NEW KINOMEscan
# kinases (KINOMEscan panel) (Homo sapiens, UniProt P78368), sequence (P78368 whole entry): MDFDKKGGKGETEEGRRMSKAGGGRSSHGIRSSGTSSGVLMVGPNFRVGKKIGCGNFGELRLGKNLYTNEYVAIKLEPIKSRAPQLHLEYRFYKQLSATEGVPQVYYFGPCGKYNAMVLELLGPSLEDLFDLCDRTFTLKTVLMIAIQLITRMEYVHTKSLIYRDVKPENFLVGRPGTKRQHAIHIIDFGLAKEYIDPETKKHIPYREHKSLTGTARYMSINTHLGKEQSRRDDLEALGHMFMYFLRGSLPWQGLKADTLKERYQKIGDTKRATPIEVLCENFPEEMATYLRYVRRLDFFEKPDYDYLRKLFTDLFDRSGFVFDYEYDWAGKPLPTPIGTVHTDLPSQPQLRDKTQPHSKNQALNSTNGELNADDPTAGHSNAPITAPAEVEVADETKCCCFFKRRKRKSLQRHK
# kinases (KINOMEscan panel) (Homo sapiens, UniProt P42336, I800L), sequence (P42336 whole entry I800L): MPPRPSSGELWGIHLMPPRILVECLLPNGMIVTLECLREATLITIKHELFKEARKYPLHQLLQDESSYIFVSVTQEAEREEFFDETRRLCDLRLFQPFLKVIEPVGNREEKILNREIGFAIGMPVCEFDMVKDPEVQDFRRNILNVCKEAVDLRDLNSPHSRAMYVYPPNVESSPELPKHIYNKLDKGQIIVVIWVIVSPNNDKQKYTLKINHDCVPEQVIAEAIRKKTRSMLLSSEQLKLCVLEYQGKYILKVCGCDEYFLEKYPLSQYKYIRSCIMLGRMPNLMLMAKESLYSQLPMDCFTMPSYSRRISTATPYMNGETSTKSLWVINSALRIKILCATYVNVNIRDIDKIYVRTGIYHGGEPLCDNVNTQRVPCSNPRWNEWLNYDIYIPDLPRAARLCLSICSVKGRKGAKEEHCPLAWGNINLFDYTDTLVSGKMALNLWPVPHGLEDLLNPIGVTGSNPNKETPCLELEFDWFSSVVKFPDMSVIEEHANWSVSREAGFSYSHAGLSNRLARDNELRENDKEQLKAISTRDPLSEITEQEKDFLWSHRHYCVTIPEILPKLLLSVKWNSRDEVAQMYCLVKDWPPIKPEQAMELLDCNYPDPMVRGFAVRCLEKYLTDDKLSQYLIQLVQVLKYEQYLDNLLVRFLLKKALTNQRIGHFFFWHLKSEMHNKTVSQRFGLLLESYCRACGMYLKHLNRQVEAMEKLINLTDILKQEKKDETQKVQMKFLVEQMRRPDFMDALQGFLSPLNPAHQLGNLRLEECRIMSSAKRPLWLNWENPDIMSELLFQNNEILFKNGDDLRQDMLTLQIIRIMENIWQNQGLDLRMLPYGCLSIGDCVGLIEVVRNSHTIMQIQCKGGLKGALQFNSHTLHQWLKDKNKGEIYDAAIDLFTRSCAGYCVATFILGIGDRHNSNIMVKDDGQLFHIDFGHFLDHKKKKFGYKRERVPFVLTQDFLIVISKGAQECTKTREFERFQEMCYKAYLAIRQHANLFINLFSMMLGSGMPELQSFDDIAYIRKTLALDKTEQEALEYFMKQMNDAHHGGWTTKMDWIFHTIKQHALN
# kinases (KINOMEscan panel) (Homo sapiens, UniProt P42336, Q546K), sequence (P42336 whole entry Q546K): as the sequence (P42336 whole entry I800L) above, with Q546K, L800I counted along it
# kinases (KINOMEscan panel) (Homo sapiens, UniProt Q16539), sequence (Q16539 whole entry): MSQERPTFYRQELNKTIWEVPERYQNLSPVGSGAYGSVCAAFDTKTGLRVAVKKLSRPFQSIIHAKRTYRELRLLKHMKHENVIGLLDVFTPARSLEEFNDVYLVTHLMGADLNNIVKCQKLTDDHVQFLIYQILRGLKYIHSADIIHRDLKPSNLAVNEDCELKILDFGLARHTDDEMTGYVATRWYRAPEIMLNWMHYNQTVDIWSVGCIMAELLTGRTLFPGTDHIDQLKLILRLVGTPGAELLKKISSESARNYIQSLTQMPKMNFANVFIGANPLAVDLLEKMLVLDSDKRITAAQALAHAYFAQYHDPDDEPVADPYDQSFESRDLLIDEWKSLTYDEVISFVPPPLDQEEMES
# kinases (KINOMEscan panel) (Homo sapiens, UniProt P36894), sequence (P36894 24-532): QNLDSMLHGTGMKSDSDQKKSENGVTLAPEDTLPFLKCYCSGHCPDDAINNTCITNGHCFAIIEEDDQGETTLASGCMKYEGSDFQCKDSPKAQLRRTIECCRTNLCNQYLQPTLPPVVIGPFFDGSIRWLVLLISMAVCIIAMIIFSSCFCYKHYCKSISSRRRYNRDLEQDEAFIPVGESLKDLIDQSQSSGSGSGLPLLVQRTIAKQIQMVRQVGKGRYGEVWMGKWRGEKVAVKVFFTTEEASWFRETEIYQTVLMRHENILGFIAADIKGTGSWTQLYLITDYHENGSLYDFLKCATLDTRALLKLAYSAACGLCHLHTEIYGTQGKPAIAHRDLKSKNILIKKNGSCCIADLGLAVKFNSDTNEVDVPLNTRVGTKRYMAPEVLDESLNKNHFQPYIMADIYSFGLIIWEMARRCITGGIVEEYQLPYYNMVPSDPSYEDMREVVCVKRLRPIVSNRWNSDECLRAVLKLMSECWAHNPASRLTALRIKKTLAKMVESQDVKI
# kinases (KINOMEscan panel) (Homo sapiens, UniProt P10721, V559D), sequence (P10721 26-976 V559D): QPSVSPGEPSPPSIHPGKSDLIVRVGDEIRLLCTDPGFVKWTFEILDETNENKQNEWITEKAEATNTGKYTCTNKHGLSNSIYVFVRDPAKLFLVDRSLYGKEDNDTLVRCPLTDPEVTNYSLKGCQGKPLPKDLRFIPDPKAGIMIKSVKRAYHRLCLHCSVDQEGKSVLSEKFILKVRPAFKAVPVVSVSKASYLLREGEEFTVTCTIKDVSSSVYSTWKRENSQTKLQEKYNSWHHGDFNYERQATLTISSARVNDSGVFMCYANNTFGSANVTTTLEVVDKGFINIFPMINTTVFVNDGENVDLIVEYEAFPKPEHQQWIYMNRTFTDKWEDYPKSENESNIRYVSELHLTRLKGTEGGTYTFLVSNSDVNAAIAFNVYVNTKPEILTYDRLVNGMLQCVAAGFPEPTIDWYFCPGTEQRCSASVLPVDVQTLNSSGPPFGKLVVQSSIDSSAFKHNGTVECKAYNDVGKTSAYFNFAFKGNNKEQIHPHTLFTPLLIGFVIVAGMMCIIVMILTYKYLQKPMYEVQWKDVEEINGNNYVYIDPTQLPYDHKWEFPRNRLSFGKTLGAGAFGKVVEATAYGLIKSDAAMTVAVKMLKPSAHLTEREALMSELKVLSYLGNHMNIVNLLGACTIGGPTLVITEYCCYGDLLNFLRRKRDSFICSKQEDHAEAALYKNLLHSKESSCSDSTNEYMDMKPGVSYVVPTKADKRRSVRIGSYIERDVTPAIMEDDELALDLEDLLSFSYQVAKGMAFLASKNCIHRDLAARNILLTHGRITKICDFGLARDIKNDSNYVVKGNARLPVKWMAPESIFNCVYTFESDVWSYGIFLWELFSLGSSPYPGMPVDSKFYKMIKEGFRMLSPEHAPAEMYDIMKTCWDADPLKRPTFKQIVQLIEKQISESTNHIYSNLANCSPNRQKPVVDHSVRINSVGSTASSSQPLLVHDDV
Compound,KINOMEscan PIK3C2G [1],KINOMEscan MAPK14/p38-alpha [2],KINOMEscan KIT(V559D) [3],KINOMEscan PIK3CA(I800L) [4],KINOMEscan PDPK1 [5],KINOMEscan PIK3CA(Q546K) [6],KINOMEscan BMPR1A [7],KINOMEscan CSNK1G2 [8]
Cc1cccc(-c2nc(Nc3ccc4nn(C)cc4c3)c3ccccc3n2)n1 [NK167],0,5,15,0,32,0,13,12
Cc1cccc(-c2nc(N(C)c3ccc4ncsc4c3)c3ccccc3n2)n1 [NK-161],0,8,7,0,29,7,4,25
